This is an account of results in patent US8372840B2, “Potassium channel blockers” (Xention Limited, priority 2008, dated 2013).

In one experiment the target is hKv1.5 (Homo sapiens, UniProt P22460). The experiment is described as follows: Kv1.5 Autopatch Electrophysiology (whole cell patch-clamp). It is filed as cell-based. To be noted: compound 1 μM, step to 0 mV for 1000 ms, total charge, room temperature (22-24° C.); for inhibition at 1 µM: read-out: hKv1.5 % inh. Here is the method: The external bathing solution contained (in mM): 150 NaCl, 10 KCl, […], 3 MgCl2, 1 CaCl2, 10 HEPES, pH 7.4. Patch pipettes were filled with an electrode solution of composition (in mM): 160 KCl, 0.5 MgCl2, 10 HEPES, 1 EGTA, pH 7.4 with KOH.
Compounds were dissolved in DMSO (100%) and made up in the external bather at a concentration of 1 μM. All experiments were conducted at room temperature (22-24° C.).
A cell suspension (10 ml), with a density of 100,000 cells/ml, was aliquoted into a 15 ml centrifuge tube and transferred to an incubator (37° C., 5% CO2) for approximately one hour before use. Following 60 min incubation, a tube was taken and centrifuged at 1000 rpm for 4 mins at room temperature. 9.5 ml supernatant was thence discarded, leaving a cell pellet at the bottom of the tube. The pellet was then resuspended using 100 μl of cold (4° C.), filtered (0.22 μm), 0.2% BSA/bather solution (0.02 g BSA/10 ml bather). The bottom of the tube was manually agitated gently until the solution became cloudy with cells. The 100 μl cell resuspension solution was then stored on the bench at 4° C. (using a Peltier-based temperature control device) until used.
A length of capillary glass (1B150E-4, WPI) was dipped into the cell suspension solution, such that ˜3 cm column of fluid was taken up by capillary action. A Ag/AgCl wire was dropped into the non-dipped end of the capillary also. The outside of the solution-filled end of the capillary was then dried and the capillary was loaded into the AutoPatch™
(§1) Borosilicate glass patch pipettes (from 1.5 mm OD, thin-walled filamented, GC150-TF capillary glass, Harvard) were pulled using a DMZ pipette puller (Zeitz Instruments), and were back-filled using the internal pipette solution, being careful that no bubbles remain at the tip or in the body of the pipette. Patch pipettes typically had resistances of 2.3-3.5 MΩ. Once filled, the pipette tip and a proportion of the shaft (˜15 mm) were dipped into Sigmacote (Sigma). The recording pipette was then loaded into the AutoPatch™. Automated patch-clamping was initiated by the operator, but thereafter AutoPatch.exe continued the experiment providing that pre-set conditions and criteria were satisfied.
Whole cell patch-clamp recordings were made using the AutoPatch™ rig, which incorporated an EPC9 amplifier (HEKA, Germany) under control of Pulse software (v8.54, HEKA, Germany), a motion controller with 2 translators (Newport, UK), valve controller (VF1) and a c-level suction device all at room temperature (22-24° C.). This equipment was completely under the control of AutoPatch.exe and operator intervention was only made when there was a requirement to refill the drug reservoirs or to prevent the loss of a cell due to a technical error. Cells with an Rseries greater than 18 MΩ were discounted from the experiment.
Qualification stages prior to perfusion and drug application ensured that the observed current met the criteria for the experiment. Only those cells with an IK>500 pA were used for experiments. Cells were continuously perfused with external solution at a flow rate of 1.8-2 ml/minute. […] Online analysis of the hKv1.5 current during the application of compounds was performed by the AutoPatch™ software. Voltage-step protocols and analysis of data was performed as described for conventional electrophysiology.
Electrophysiology voltage-step protocols and analysis of data was performed as follows. Data was sampled at 5 kHz, and filtered with a −3 dB bandwidth of 2.5 kHz. Cells were held at a voltage of −80 mV. Currents were evoked to a voltage step for 1000 ms in duration at 0 mV every 5 s. Currents were analysed using Pulsefit software (v8.54, HEKA, Germany), with the total charge measured during the whole of the voltage step. All other plots were produced using Igor Pro (WaveMetrics).

The next experiment concerns the target T1, human Kv1.3 (Homo sapiens, UniProt P22001).
T1 construct: expressed in transfected cells; host or cells: stably transfected cells grown in medium for CHO cells
The experiment is described as follows: Kv1.3 Autopatch Electrophysiology (whole cell patch-clamp, stably transfected CHO cells). It is filed as cell-based. The following applies: compound 1 μM, step to +30 mV for 500 ms, inhibition of total charge relative to control, room temperature; for inhibition at 1 µM: CHO, read-out: hKv1.3 % inh. As to the method: Cells stably transfected with cDNA for human Kv1.3 (in pcDNA3.1) were grown in Ex-cell 302 serum-free medium for CHO cells, supplemented with 10 μl/ml [100×] glutamine, 500 μg/ml G418 ([…]), and 1% HT supplement (50×, hypoxanthine and thymidine). Compounds were tested on these cells using the AutoPatch technology in whole cell mode.
The external bathing solution contained (in mM): 150 NaCl, 10 KCl, 1 MgCl2, 3 CaCl2, 10 HEPES, pH 7.4 with NaOH. Patch pipettes were filled with an electrode solution of composition (in mM): 100 K-Gluconate, 20 KCl, 1 MgCl2, 1 CaCl2, 10 HEPES, 11 EGTA, 5 ATP-Na2, 2 Glutathione pH 7.2 with KOH.
Compounds were dissolved in DMSO (100%) and made up in the external bather at a concentration of 1 μM immediately prior to use. All experiments were conducted at room temperature.
A cell suspension (10 ml), with a density of 6×10^6 cells, was aliquoted into a 15 ml centrifuge tube and stored at 4° C. before use. Prior to use a tube was taken and centrifuged at 1000 rpm for 4 mins at room temperature. The supernatant was then discarded, leaving a cell pellet at the bottom of the tube. The pellet was then resuspended using 1 ml of cold (4° C.), filtered (0.22 μm), 0.05% BSA/bather solution (0.05 g BSA/100 ml bather). The bottom of the tube was manually agitated followed by gentle tituration. The cell suspension was then placed in the AutoPatch™ temperature controlled cell-hotel at 14° C. and regularly titurated.
as §1, with “A length of Teflon capillary tubing was dipped into the cell suspension solution, and a column of fluid was taken up by negative pressure. The column of fluid was in electrically connectivity with a Ag/AgCl reference electrode. Borosilicate” for “Borosilicate”, “remained” for “remain”, “2.5-3.5” for “2.3-3.5”, “pipettes were placed in a multiwell array and mounted on” for “pipette was then loaded into”, “AutoPatch™ machine.” for “AutoPatch™.”, “patch-clamping and drug-application” for “patch-clamping”
Whole cell patch-clamp recordings were made using the AutoPatch™ rig, which incorporated an EPC9 or EPC10 amplifier (HEKA, Germany) under control of Pulse software (v8.54 or v8.76, HEKA, Germany), a cell applicator, automated drug application system (DAS), valve controller (VF1) and a suction device all at room temperature. This equipment was completely under the control of AutoPatch.exe and operator intervention was only made when there was a requirement to refill the bather reservoirs or to prevent the loss of a cell due to a technical error.
Qualification stages prior to perfusion and drug application ensured that the observed current met the criteria for the experiment. Cells were continuously perfused with external solution at a flow rate of ˜2 ml/minute.
Electrophysiology voltage-step protocols and analysis of data was performed as follows. Data were sampled at 5 kHz, and filtered with a −3 dB bandwidth of 2.5 kHz. Cells were held at a voltage of −80 mV. Currents were evoked by a voltage step to +30 mV for 500 ms in duration applied every 15 s. Online analysis of the hKv1.3 current during the application of compounds was performed by the Pulse (v8.54 or v8.76, HEKA, Germany), Excel (Microsoft, USA) and AutoPatch™ software, with the total charge measured during the whole of voltage step Inhibition of charge movement in the presence of drug was calculated relative to control.
For orientation: In patch-clamp work, channel activity is measured electrically.

Chain of hKv1.5 (P22460 whole entry): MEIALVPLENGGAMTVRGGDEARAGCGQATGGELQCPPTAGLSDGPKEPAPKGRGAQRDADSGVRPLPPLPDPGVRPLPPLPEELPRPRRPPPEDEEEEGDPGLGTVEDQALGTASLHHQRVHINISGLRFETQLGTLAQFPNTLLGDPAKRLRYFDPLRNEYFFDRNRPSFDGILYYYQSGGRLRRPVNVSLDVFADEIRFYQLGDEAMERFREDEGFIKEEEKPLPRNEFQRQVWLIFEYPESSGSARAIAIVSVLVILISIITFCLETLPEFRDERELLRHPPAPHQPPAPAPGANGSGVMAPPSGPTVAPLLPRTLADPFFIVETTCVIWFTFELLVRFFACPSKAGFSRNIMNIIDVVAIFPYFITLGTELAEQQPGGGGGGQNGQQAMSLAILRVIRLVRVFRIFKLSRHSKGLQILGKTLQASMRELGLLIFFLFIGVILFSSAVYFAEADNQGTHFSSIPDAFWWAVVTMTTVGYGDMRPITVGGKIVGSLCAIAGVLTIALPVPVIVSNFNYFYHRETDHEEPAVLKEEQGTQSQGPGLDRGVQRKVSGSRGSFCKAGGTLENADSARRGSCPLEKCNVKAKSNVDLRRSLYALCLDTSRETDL
T1 sequence (P22001 whole entry): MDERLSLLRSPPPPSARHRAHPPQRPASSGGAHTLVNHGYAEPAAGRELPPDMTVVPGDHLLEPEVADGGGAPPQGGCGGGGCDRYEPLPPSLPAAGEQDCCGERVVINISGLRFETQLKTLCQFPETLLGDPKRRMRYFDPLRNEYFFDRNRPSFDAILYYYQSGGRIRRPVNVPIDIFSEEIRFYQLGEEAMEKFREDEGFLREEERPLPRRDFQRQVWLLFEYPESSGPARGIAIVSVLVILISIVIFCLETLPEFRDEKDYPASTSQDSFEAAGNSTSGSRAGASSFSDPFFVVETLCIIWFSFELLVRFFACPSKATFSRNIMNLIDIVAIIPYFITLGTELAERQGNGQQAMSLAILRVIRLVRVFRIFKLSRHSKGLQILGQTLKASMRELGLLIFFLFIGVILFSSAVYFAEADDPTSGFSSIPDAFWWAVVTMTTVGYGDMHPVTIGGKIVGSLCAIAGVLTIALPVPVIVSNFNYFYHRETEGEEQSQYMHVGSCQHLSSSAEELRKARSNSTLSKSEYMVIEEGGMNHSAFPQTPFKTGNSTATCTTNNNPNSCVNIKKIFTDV

For `O=S(=O)(c1ccccc1)N(Cc1ccccc1)c1cccc(N2CCNC(c3ccccc3)C2)c1` (stereo not shown) [Example 14, N-Benzyl-N-[3-(3-phenyl-piperazin-1-yl)-phenyl]-benzenesulfonamide], the inhibition at 1 µM is 77% on hKv1.5 and 94% on human Kv1.3.
The like results for `Cn1cncc1C(=O)Nc1cccc(N(Cc2ccccc2)S(=O)(=O)c2ccccc2)c1` [Example 3, 3-Methyl-3H-imidazole-4-carboxylic acid [3-(benzenesulfonyl-benzyl-amino)-phenyl]-amide] were, in that order, 73% and 90%.
The like results for `COCC(=O)Nc1cccc(N(Cc2ccccc2)S(=O)(=O)c2ccccc2)c1` [Example 12, N-[3-(Benzenesulfonyl-benzyl-amino)-phenyl]-2-methoxy-acetamide] were, in that order, 58% and 85%.
The like results for `O=C1NCCN1c1cccc(N(Cc2ccc(Cl)cc2)S(=O)(=O)c2ccccc2)c1` [Example 46, N-(4-Chloro-benzyl)-N-[3-(2-oxo-imidazolidin-1-yl)-phenyl]-benzenesulfonamide] were, in that order, 91% and 100%.
For the compound `CNC(=O)COc1cccc(N(Cc2ccc(Cl)cc2)S(=O)(=O)c2ccn(C)n2)c1` [Example 7, 2-{3-[(4-Chloro-benzyl)-(1-methyl-1H-pyrazole-3-sulfonyl)-amino]-phenoxy}-N-methyl-acetamide], the inhibition at 1 µM came out at 93% at hKv1.5 and 99% at human Kv1.3.
Compound “N-[3-(Benzenesulfonyl-benzyl-amino)-phenyl]-acetamide [Example 10]” yielded a hKv1.5 % inh. at hKv1.5 of 28%. On human Kv1.3, this compound gave a hKv1.3 % inh. of 50%.
For the compound `O=C1NCCN1c1cccc(N(Cc2ccccc2)S(=O)(=O)c2ccccc2)c1` [Example 1, N-Benzyl-N-[3-(2-oxo-imidazolidin-1-yl)-phenyl]-benzenesulfonamide], the inhibition at 1 µM at hKv1.5 is 66%; at human Kv1.3, 86%.
For `O=S(=O)(c1ccccc1)N(Cc1ccccc1)c1cccc(N2CCOCC2)c1` [Example 2, N-Benzyl-N-(3-morpholin-4-yl-phenyl)-benzenesulfonamide], the figures for the inhibition at 1 µM at hKv1.5 and on human Kv1.3 were 62% and 76%, respectively.
Take “Pyridine-3-sulfonic acid benzyl-[3-(2-oxo-imidazolidin-1-yl)-phenyl]-a(2-oxo-imidazolidin-1-yl)-phenyl]-amide [Example 47]”: on hKv1.5, the hKv1.5 % inh. was 51%. The compound also returned a hKv1.3 % inh. on human Kv1.3 of 74%.
On to `O=S(=O)(c1ccccc1)N(Cc1ccccc1)c1cccc(N2CCN(c3ccccc3)CC2)c1` [Example 5, N-Benzyl-N-[3-(4-phenyl-piperazin-1-yl)-phenyl]-benzenesulfonamide], for which the inhibition at 1 µM at hKv1.5 was 91%; at human Kv1.3, 88%.
Take “1-Methyl-1H-pyrazole-3-sulfonic acid (4-chloro-benzyl)-[3-(2-oxo-imidazolidin-1-yl)-phenyl]-amide [Example 42]”: the hKv1.5 % inh. on hKv1.5 worked out at 77%. Moreover, on human Kv1.3, the hKv1.3 % inh. came out at 99%.
